Source: PubChem BioAssay (NCI)
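Assay format: 96-well plates, 48-hour exposure. At the GI50, growth is halved. TGI denotes the concentration required for complete inhibition of growth.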

What was measured:
Test in all cases: NCI-60 cell line screen, 48 h
[1] = tested on: UO-31 renal
[2] = tested on: CCRF-CEM leukemia
[3] = tested on: T-47D breast
[4] = tested on: UACC-257 melanoma
[5] = tested on: SK-MEL-2 melanoma
[6] = tested on: HL-60(TB) leukemia
[7] = tested on: KM12 colon
[8] = tested on: PC-3 prostate
[9] = tested on: NCI-H460 lung
[10] = tested on: NCI-H522 lung
[11] = tested on: OVCAR-8 ovarian
[12] = tested on: SK-OV-3 ovarian
[13] = tested on: SNB-19 CNS
[14] = tested on: 786-0 renal
[15] = tested on: MDA-MB-435
[16] = tested on: DU-145 prostate
[17] = tested on: ACHN renal
[18] = tested on: HS 578T breast
[19] = tested on: A498 renal
[20] = tested on: SK-MEL-5 melanoma
[21] = tested on: MDA-MB-231 breast
[22] = tested on: SF-268 CNS
[23] = tested on: MOLT-4 leukemia
[24] = tested on: OVCAR-4 ovarian
[25] = tested on: K-562 leukemia
[26] = tested on: SN12C renal
[27] = tested on: OVCAR-5 ovarian
[28] = tested on: HT29 colon
[29] = tested on: BT-549 breast
[30] = tested on: SNB-75 CNS
[31] = tested on: LOX IMVI melanoma
[32] = tested on: MCF7 breast
[33] = tested on: A549 NSCLC
[34] = tested on: SF-295 CNS
[35] = tested on: CAKI-1 renal
[36] = tested on: HOP-92 NSCLC
[37] = tested on: RPMI-8226 leukemia
[38] = tested on: RXF 393 renal
[39] = tested on: MALME-3M melanoma
[40] = tested on: M14 melanoma
[41] = tested on: NCI/ADR-RES ovarian
[42] = tested on: COLO 205 colon
[43] = tested on: HCT-116 colon
[44] = tested on: SF-539 CNS
[45] = tested on: SR leukemia
[46] = tested on: NCI-H226 lung
[47] = tested on: UACC-62 melanoma
[48] = tested on: NCI-H23 lung
[49] = tested on: U251 CNS
[50] = tested on: TK-10 renal
[51] = tested on: HCC-2998 colon
[52] = tested on: SK-MEL-28 melanoma
[53] = tested on: SW-620 colon
[54] = tested on: HCT-15 colon
[55] = tested on: EKVX NSCLC
[56] = tested on: HOP-62 NSCLC
[57] = tested on: OVCAR-3 ovarian
[58] = tested on: IGROV1 ovarian

In the case of `O=C1Nc2ccccc2SC1C1SC(=S)N(Cc2ccccc2)C1=O` (stereo unspecified), the GI50 [1] was 5.63 µM, the TGI [1] was 22.8 µM and the GI50 [2] was 1.76 µM. The TGI [2] was > 29.8 µM, the GI50 [3] was 0.815 µM and the TGI [3] was 21.1 µM. For the same compound, the GI50 [4] was 20.1 µM, the TGI [4] was 39 µM and the GI50 [5] was 18.6 µM. For the same compound, the TGI [5] was 37.4 µM, the GI50 [6] was 3.46 µM and the TGI [6] was 32.2 µM. It also gave a GI50 [7] of 0.458 µM, a TGI [7] of 1.99 µM and a GI50 [8] of 5.74 µM. For the same compound, the TGI [8] was > 43 µM, the GI50 [9] was 8.21 µM and the TGI [9] was 29.8 µM. It also gave a GI50 [10] of 5.29 µM, a TGI [10] of 19.1 µM and a GI50 [11] of 23.7 µM. For the same compound, the TGI [11] was > 88.2 µM, the GI50 [12] was 22.9 µM and the TGI [12] was > 100 µM. For the same compound, the GI50 [13] was 11.2 µM, the TGI [13] was 29.5 µM and the GI50 [14] was 5.06 µM. The TGI [14] was 16.5 µM, the GI50 [15] was 3.04 µM and the TGI [15] was 15.5 µM. It also gave a GI50 [16] of 2.26 µM, a TGI [16] of 5.58 µM and a GI50 [17] of 7.41 µM. For the same compound, the TGI [17] was 20.3 µM, the GI50 [18] was 5.52 µM and the TGI [18] was 31.2 µM. For the same compound, the GI50 [19] was 14.6 µM, the TGI [19] was 32.9 µM and the GI50 [20] was 13.7 µM. The TGI [20] was 29.3 µM, the GI50 [21] was 3.65 µM and the TGI [21] was 12.9 µM. It also gave a GI50 [22] of 3.37 µM, a TGI [22] of 11.4 µM and a GI50 [23] of 3.57 µM. The TGI [23] was > 36 µM, the GI50 [24] was 13.9 µM and the TGI [24] was 33.7 µM. The GI50 [25] was 2.65 µM, the TGI [25] was > 81.1 µM and the GI50 [26] was 4.79 µM. For the same compound, the TGI [26] was 15.2 µM, the GI50 [27] was 20.2 µM and the TGI [27] was 37 µM. For the same compound, the GI50 [28] was 3.98 µM, the TGI [28] was 39.8 µM and the GI50 [29] was 5.71 µM. The TGI [29] was 22.3 µM, the GI50 [30] was 10.5 µM and the TGI [30] was 24.6 µM. For the same compound, the GI50 [31] was 2.08 µM, the TGI [31] was 7.78 µM and the GI50 [32] was 1.21 µM. The TGI [32] was 14.4 µM, the GI50 [33] was 16 µM and the TGI [33] was > 51.4 µM. For the same compound, the GI50 [34] was 10.2 µM, the TGI [34] was 40.2 µM and the GI50 [35] was 4.53 µM. It also gave a TGI [35] of 17.6 µM, a GI50 [36] of 4.21 µM and a TGI [36] of 24.7 µM. It also gave a GI50 [37] of 0.488 µM, a TGI [37] of 7.39 µM and a GI50 [38] of 4.21 µM. The TGI [38] was > 27.7 µM, the GI50 [39] was 15.9 µM and the TGI [39] was > 61.5 µM. For the same compound, the GI50 [40] was 4.6 µM, the TGI [40] was 19.8 µM and the GI50 [41] was 23.6 µM. For the same compound, the TGI [41] was 97.4 µM, the GI50 [42] was 3.38 µM and the TGI [42] was 17.8 µM. For the same compound, the GI50 [43] was 2.45 µM, the TGI [43] was 9.28 µM and the GI50 [44] was 3.79 µM. For the same compound, the TGI [44] was 12.8 µM, the GI50 [45] was 4.03 µM and the TGI [45] was > 78.2 µM. The GI50 [46] was 17 µM, the TGI [46] was 35 µM and the GI50 [47] was 10.6 µM. It also gave a TGI [47] of 23.3 µM, a GI50 [48] of 11.8 µM and a TGI [48] of 35.2 µM. For the same compound, the GI50 [49] was 3.14 µM, the TGI [49] was 12.2 µM and the GI50 [50] was 5.71 µM. The TGI [50] was 22 µM, the GI50 [51] was 5.33 µM and the TGI [51] was 17.1 µM. For the same compound, the GI50 [52] was 4.99 µM, the TGI [52] was 18 µM and the GI50 [53] was 2.39 µM. It also gave a TGI [53] of 13.6 µM, a GI50 [54] of 3.37 µM and a TGI [54] of 16 µM. For the same compound, the GI50 [55] was 21.7 µM, the TGI [55] was 53.2 µM and the GI50 [56] was 6.62 µM. It also gave a TGI [56] of 19.7 µM, a GI50 [57] of 2.37 µM and a TGI [57] of 6.31 µM. For the same compound, the GI50 [58] was 3.37 µM and the TGI [58] was 16.5 µM.
